Reference: publication PMC12631437, “Evaluation of the Activity of 4‑Quinolones against Multi-Life Stages of Plasmodium spp” (ACS Omega, 2025)
Converted amounts (≈) assume the structure as drawn. Where two headings read alike, the source gives them in different places.

Key:
[1] = tested on: Plasmodium falciparum 3D7 sensitive strain; experiment: SYBR Green growth assay, asexual blood stages, 3D7 sensitive strain; type: cell-based
Method: (§1) Parasite strains SB1-A6, 7G8, V1/S, and HB3 were acquired from BEI-MR4, while the ATQ R1 strain, carrying a V259L gene mutation, was generated in-house. […] Parasitemia was monitored using Giemsa-stained blood smears.
(§2) Bioassays were conducted with synchronized ring-stage parasites using sorbitol synchronization. Antimalarial compounds were evaluated in 96-well plates, and parasite growth was assessed using a SYBR Green-based fluorescence assay The assays were conducted when the parasite quantity reached at least 70% of the ring stage. Compounds were initially added at specific concentrations in the first wells, followed by serial dilution (1:2) ranging from 20 μM to 0.009 μM. Subsequently, a solution containing parasites in RPMI medium at a hematocrit of 2% was added to each well, and the parasites were then incubated for 72 h.
(§3) The IC50 values were determined using concentration–response curves generated in GraphPad 8 software. Additionally, the resistance index was calculated by comparing IC50 values obtained for the sensitive 3D7 strain with those of the resistant strains.

[2] = tested on: P. berghei hepatic stages; experiment: Hepatic stage bioluminescence assay, Huh-7 cells infected with luciferase-expressing sporozoites; type: cell-based, Plasmodium berghei; conditions: read-out: IC50 (μM) Pb liver stages
Method: (§4) Huh-7 cells were cultured in RPMI 1640 medium (Sigma) supplemented with 10% v/v fetal bovine serum (FBS), 1% v/v penicillin/streptomycin, 1% v/v glutamine, 1% v/v nonessential amino acids, and 10 mM HEPES, pH 7. For compound dilution, a medium containing 1:1000 gentamicin (G) and 1:300 fungizone (F) was used. Cells were seeded at 1 × 10^4 cells/well in 96-well plates and incubated at 37 °C with 5% CO2. After 24 h, compounds were diluted in RPMI+F+G, and after removal of the culture medium, added to the cells in triplicate. DMSO and atovaquone were used as negative and positive controls, respectively. Following incubation for 1 h at 37 °C, 5% CO2, the cells were infected with luciferase-expressing P. berghei sporozoites (4,000 parasites per well) freshly extracted from the salivary glands of infected mosquitoes reared at the GIMM insectarium. The viability of Huh-7 cells exposed to the compounds was assessed 46 h later by the AlamarBlue assay (Invitrogen, UK) measurement, and parasite burden was measured 48 h after sporozoite addition using a bioluminescence assay (Biotium). IC50 values were calculated using GraphPad Prism through nonlinear regression analysis of normalized dose–response curves.

[3] = tested on: late-stage gametocytes (IV and V) of P. falciparum NF54; experiment: Late-stage gametocyte bioluminescence assay, luciferase-expressing NF54; type: cell-based, Plasmodium falciparum; conditions: for Pf gametocytes inhibition: 1 μM
Method: For the in vitro culture of sexual stages of P. falciparum NF54 Luminescent strain, the Tripathi protocol was followed.
Parasite asexual stages were synchronized, and ring-stage parasites were incubated with a parasite-conditioned medium to induce stress and trigger gametocyte induction. After sexually committed parasites invaded new erythrocytes, N-acetylglucosamine was added to prevent further invasion and clear residual asexual parasites.
When a predominance of late stage (IV and V) gametocytes was identified and counted together, , the MACS magnetic system was used for gametocyte enrichment, as previously described. ,
The column content was eluted with RPMI medium into a 15 mL Falcon tube until translucent medium appeared, yielding ∼ 10 mL of eluate. The sample was centrifuged at 1500 rpm for 5 min at 37 °C, the supernatant discarded, and the pellet washed with preheated RPMI medium containing albumax. A 1 μL pellet sample was used to prepare a Giemsa-stained smear for gametocytaemia determination by counting 2000 cells. The gametocytemia for each assay were 71%, 64% and 31%. The remaining pellet was adjusted to 1 mL with RPMI medium containing 10% human serum at 37 °C. Total cell counts were performed using a Neubauer chamber with a 10X diluted sample.
Each well contained 200,000 gametocytes in 150 μL without erythrocytes. After 48 h of incubation, a luciferase kit (Promega) was used to reveal the assay. Eighty microliters of supernatant were discarded, and the pellet was homogenized in the remaining content. Forty microliters of the sample were transferred to a clear 96-well plate containing lysis solution (1X), gently mixed, and moved to a white-bottomed 96-well plate. Luciferase (40 μL) was added, and luminescence was measured using a microplate reader with a 10-s integration time.

P. falciparum HB3 strain = experiment: SYBR Green growth assay, asexual blood stages, HB3 strain; type: cell-based, Plasmodium falciparum; conditions: Plasmodium falciparum
Method: as §1, §2, §3

P. falciparum 7G8 strain = experiment: SYBR Green growth assay, asexual blood stages, 7G8 strain; type: cell-based, Plasmodium falciparum; conditions: Plasmodium falciparum
Method: (§5) Healthy blood samples for parasite culture were obtained from voluntary donors (approved under protocol #28176720.9.0000.0011), processed to remove white blood cells, and stored at 2 °C–8 °C for up to 15 days. Parasite strains SB1-A6, 7G8, V1/S, and HB3 were acquired from BEI-MR4, while the ATQ R1 strain, carrying a V259L gene mutation, was generated in-house. Infected erythrocytes were cultured in RPMI 1640 medium supplemented with Hepes, sodium bicarbonate, glucose, Albumax, and gentamicin, […], and incubated in a 5% CO2, 5% O2, and 90% N2 gas mixture at 37 °C with daily medium changes. Parasitemia was monitored using Giemsa-stained blood smears.
as §2
(§6) To assess parasite growth, the culture medium was replaced with a lysis solution (Trisbase: 49.31%, EDTA: 30.00%, Saponin: 0.16%, Triton: 0.02%) containing the fluorescent dye SYBR Green (Sigma). After a 30 min incubation, fluorescence readings were taken to determine the 50% inhibitory concentration (IC50) of parasite growth. The IC50 values were determined using concentration–response curves generated in GraphPad 8 software. Additionally, the resistance index was calculated by comparing IC50 values obtained for the sensitive 3D7 strain with those of the resistant strains.

[4] = tested on: P. falciparum V1/S strain; experiment: microbe, parasite or virus in culture; type: cell-based, Plasmodium falciparum; conditions: Plasmodium falciparum, 72 h
Method: as §5, §2, §6

[5] = tested on: P. falciparum DHODH strain; experiment: SYBR Green growth assay, asexual blood stages, DHODH resistant mutant; type: cell-based, Plasmodium falciparum; conditions: Plasmodium falciparum, 72 h
Method: as §5, §2, §6

[6] = tested on: P. falciparum hepatic stages; conditions: cited from earlier work
[7] = tested on: P. berghei exflagellation centers; experiment: Ex vivo exflagellation assay, blood of P. berghei infected mice; type: cell-based, Plasmodium berghei; conditions: 5 μM, 15 min incubation
Method: For the ex vivo assays, a female CD1 mouse between 4 and 5 weeks of age (n = 3) was infected with P. berghei. After 4 days, when the presence of parasites (sexual phases) in the blood was observed by Giemsa-stained blood smear microscopy, the total blood from the mouse was collected into a preheated tube at 37 °C containing RPMI medium supplemented with 20% Fetal Bovine Serum (FBS) and 200 units/mL of heparin as an anticoagulant. The tube was maintained at 37 °C and centrifuged at 1500 rpm for 5 min. The supernatant was discarded, and the blood was resuspended in 20 mL of RPMI medium supplemented with 20% FBS.
One milliliter of resuspended blood was added to each well of a 6-well plate containing 5 μM methylene blue (positive control), test compound 1 at 10 μM and 1 μM, and DMSO (negative control). After 15 min, the wells were homogenized, and 10 μL of the content was collected into an Eppendorf tube and incubated at room temperature for another 15 min. The sample was then transferred to a Neubauer chamber, and exflagellation centers were counted using an optical microscope at 40× magnification.

[8] = tested on: P. berghei sexual phases in An. stephensi; experiment: In vivo transmission-blocking assay, P. berghei infected CD1 mice, An. stephensi; parameters: species or system Plasmodium berghei; conditions: positive control, 25 mg/kg x 2/12h
Method: For this assay, a colony of An. stephensi was used. The lab-reared An. stephensi was kept under controlled conditions, with a temperature of 26 °C ± 1 °C, a 12/12 h light/dark cycle, a relative humidity of 70% ± 10%, and fed a 30% sugar solution as needed.
Female CD1 mice (4 to 6 weeks old) were infected by intraperitoneal inoculation (i.p.) containing 10 million erythrocytes infected with P. berghei expressing the GFP fluorescent protein. After 4 days, when parasites in the sexual stages were detected via Giemsa-stained blood smears, mice with similar gametocytemia and parasitemia were randomly divided into three groups of two animals each. The groups of two mices were treated orally with compound 1 at two doses of 50 mg/kg, spaced 12 h apart. […] Following the second dose, mice were anesthetized and placed in individual cages containing approximately 50 female A. stephensi mosquitoes, which had been starved for 24 h before the assay. Blood feeding lasted for 30 min, after which unfed mosquitoes were removed. Engorged females were maintained in an insectary at 21 ± 1 °C and 60% relative humidity, receiving a 30% glucose solution.
A group of 10 mosquitoes was set aside to assess sporozoite development in salivary glands, following a protocol similar to the one described previously, with dissections performed 21 days postblood meal. Additionally, 10 μL of mouse blood was collected immediately after treatment with the compounds and incubated at room temperature for 15 min. Exflagellation was observed under optical microscopy to evaluate the effect of 4-quinolone-derived molecules on microgametocyte activity.

Huh-7 cells = experiment: Alamar Blue cell confluency (cytotoxicity) in Huh-7 cells; type: cell-based
Method: as §4, with “For” for “Huh-7 cells were cultured in RPMI 1640 medium (Sigma) supplemented with 10% v/v fetal bovine serum (FBS), 1% v/v penicillin/streptomycin, 1% v/v glutamine, 1% v/v nonessential amino acids, and 10 mM HEPES, pH 7. For”, “DMSO and atovaquone were used as negative and positive controls, respectively.” left out
On the first day of the assay, the compounds were diluted at 10 and 1 μM in cRPMI medium supplemented with fungizone. and gentamicin. The culture medium of Huh-7 cells was removed and replaced with compound dilutions in triplicate. As a control, a DMSO dilution mimicking the highest compound concentration used was included. The cells were incubated for 1 h at 37 °C in a 5% CO2 atmosphere.
On the second day of the assay, compound toxicity was assessed by measuring cell confluency using the Alamar Blue/CellTiter Blue reagent. First, reagent aliquots stored at −20 °C were thawed and diluted at a 1:20 ratio in cRPMI. The culture medium was removed and replaced with 80 μL of the solution per well, followed by incubation at 37 °C and 5% CO2 for 1 h and 30 min. Fluorescence was measured using a plate reader with the Tecan i-Control software.

[9] = tested on: P. falciparum ATQ_R1 strain; experiment: SYBR Green growth assay, asexual blood stages, ATQ_R1 strain; type: cell-based, Plasmodium falciparum; conditions: Plasmodium falciparum, 72 h
Method: as §5, §2, §6

[10] = tested on: P. falciparum oocyst development; parameters: method as in PMID 12878530, PMID 17361016; conditions: studies primarily focused on P. falciparum; ref 27;28; cited from earlier work
[11] = Plasmodium falciparum, 3D7, 72 h
[12] = Plasmodium falciparum, 3D7, 72 h, asexual blood stages, 3D7 sensitive strain, 72 h, read-out: IC50

2-(4-Chlorophenyl)-6-morpholinoquinolin-4(1H)-one [compound 3]
IC50 ([1]; asexual blood stages, 3D7 sensitive strain, 72 h, read-out: IC50): 2.9 µM | IC50 ([2]; Huh-7 cells, 48 h after sporozoite addition): 0.64 ± 0.04 µM | Pf gametocytes inhibition [3]: no activity

CCN(CC)CCCC(C)Nc1ccnc2cc(Cl)ccc12 (centres unmarked) [Chloroquine, reference compound]
IC50 [1, 11]: 0.006 ± 0.001 µM | IC50 (P. falciparum HB3 strain; HB3, 72 h): 0.006 ± 0.002 µM | IC50 (P. falciparum 7G8 strain; 7G8, 72 h): 0.22 ± 0.08 µM | IC50 [4]: 0.17 ± 0.09 µM

Cc1cc(Nc2ccc(S(F)(F)(F)(F)F)cc2)n2nc(C(C)(F)F)nc2n1 [DSM 265, reference compound]
IC50 [5]: > 10 µM

Cc1c(F)c(N2CCNC(C)C2)cc2c1c(=O)c(C(=O)O)cn2C1CC1 (centres unmarked) [Grepafloxacin]
IC50 P. falciparum hepatic stages [6]: 5.0 ± 0.2 µg/mL (≈ 13.9 µM)

CN(C)c1ccc2nc3ccc(=[N+](C)C)cc-3sc2c1 [MB, Methylene blue, reference compound]
inhibition at 5 µM ([3]; Plasmodium falciparum, NF54, 48 h, control at 5 μM, 48 h, read-out: Pf gametocytes Inhibition (%)): 100% | inhibition of exflagellation centers (ex vivo) [7]: completely inhibited | inhibition at 5 µM ([7]; Plasmodium berghei, 0.25 h): 100%

COc1cc(NC(C)CCCN)c2ncccc2c1 (centres unmarked) [Primaquine, reference compound]
inhibition of P. berghei oocysts (in vivo) [8]: 100% | Confluency % (Huh-7 cells; 1 μM): 109 ± 10% | Confluency % (Huh-7 cells; 10 μM): 104.0 ± 0.2%

CCc1nc(N)nc(N)c1-c1ccc(Cl)cc1 [Pyrimethamine, reference compound]
IC50 [9]: > 10 µM | IC50 [1, 12]: 0.05 ± 0.008 µM | IC50 (P. falciparum HB3 strain; HB3 strain, 72 h, read-out: IC50): 5.2 ± 0.4 µM | IC50 (P. falciparum 7G8 strain; 7G8 strain, 72 h, read-out: IC50): 6 ± 1 µM | IC50 [4]: 6 ± 2.4 µM

Cc1ccc(-c2cc(O)c3ccccc3n2)cc1 [compound 2, 2-p-Tolylquinolin-4(1H)-one]
IC50 [1, 12]: 11 µM | Confluency % (Huh-7 cells; 1 μM): 163 ± 14% | Confluency % (Huh-7 cells; 10 μM): 104 ± 4% | IC50 ([2]; Plasmodium berghei, Huh-7 cells, 48 h after sporozoite addition): 1.3 ± 0.2 µM

O=c1cc(-c2ccc(N3CCOCC3)cc2)[nH]c2ccccc12 [compound 4, 2-(4-Morfolinofenil)-quinolin-4(1H)-one]
IC50 [1, 12]: > 10 µM | Pf gametocytes inhibition [3]: no activity

CCCCCCCc1cc(O)c2ccccc2n1 [compound 5, 2-Heptylquinolin-4(1H)-one]
IC50 [1, 11]: 1 ± 0.2 µM | Confluency % (Huh-7 cells; 1 μM): 100 ± 1% | Confluency % (Huh-7 cells; 10 μM): 147 ± 3% | IC50 ([2]; Plasmodium berghei, Huh-7, 48 h): 0.3 ± 0.01 µM | Pf gametocytes inhibition [3]: no activity | inhibition at 20 µM ([3]; Plasmodium falciparum, NF54, 48 h, read-out: Pf gametocytes Inhibition (%)): 25 ± 4%

CCCCN(CCCC)CCC(O)c1cc2c(Cl)cc(Cl)cc2c2cc(C(F)(F)F)ccc12 (centres unmarked) [halofantrine]
concentration required to inhibit oocyst development [10]: around 10 μM

CCCCN(CCCC)CC(O)c1cc(Cl)cc2c1-c1ccc(Cl)cc1/C2=C/c1ccc(Cl)cc1 (centres unmarked) [lumefantrine]
concentration required to inhibit oocyst development [10]: around 10 μM

OC(c1cc(C(F)(F)F)nc2c(C(F)(F)F)cccc12)C1CCCCN1 (centres unmarked) [mefloquine]
concentration required to inhibit oocyst development [10]: around 10 μM
